MBC and IC50 data for two compounds are collected here from patent US20190008790A1, “A METHOD FOR THE PREPARATION OF A DELIVERY DRUG DELIVERY SYSTEM AND A COMPOSITION THEREFOR” (Element Six (UK) Limited, priority 2015, published 2019).

Each structure is given as a SMILES string. ≈ marks a conversion by molar mass, not a printed value.

Experiment [1] has as its system Staphylococcus aureus subsp. aureus MRSA252. Put plainly: Minimum Bactericidal Concentration Test (MBC), re-growth as percentage of positive control. In kind it is cell-based. As to conditions: ciprofloxacin concentration, dilutions of 0.5 mg/ml stock, re-growth vs positive control, read-out: concentration at which activity against MRSA252 was maintained (MBC test). How it is done:
In this example, the efficacy of the product of Example 7 was tested against Comparative Example 7 using a Minimum Bactericidal Concentration Test (MBC) to compare the inhibitory.
A sample of the spray dried powder obtained from Example 7 was dispersed into deionised water to give a ciprofloxacin concentration of 0.5 mg/ml (“Solution A”). A dispersion having the same concentration of ciprofloxacin was prepared by dissolving ciprofloxacin into dimethyl sulfoxide (“Solution B”). A third sample (“Solution C”) consisting of a water saturated ciprofloxacin solution was prepared by dispersing powder obtained from Comparative Example 7.
All three solutions were diluted to various concentrations and were subject to Minimum Bactericidal Concentration Test (MBC) to compare the inhibitory activity via re-growth of Staphylococcus aureus subsp. aureus MRSA252 as percentage of positive control. […] Solution B (DMSO/ciprofloxacin organic solution) maintained activity against MRSA252 at 62.5 mg/L (see FIG. 4(b)).

In experiment [2] the test system is Fusobacterium nucleatum. Description: IC50 test (half maximal inhibitory concentration) on gram-negative bacterium. To be noted: Triclosan ppm, percentage growth compared to positive control, 800 ppm stock. In kind it is cell-based. The text has this:
The effectiveness of the active pharmaceutical ingredient may be measured by means of its “half maximal inhibitory concentration”, also known as the “IC50” value.
The IC50 of a substance is a measure of the effectiveness of that substance in inhibiting a specific biological or biochemical function. The IC50 indicates how much of a particular drug or other substance (inhibitor) is needed to inhibit a given biological process (or component of a process, i.e. an enzyme, cell, cell receptor or microorganism) by half. It is commonly used as a measure of antagonist drug potency in pharmacological research. The IC50 of a drug can be determined by constructing a dose-response curve and examining the effect of different concentrations of antagonist on reversing agonist activity. IC50 values can be calculated for a given antagonist by determining the concentration needed to inhibit half of the maximum biological response of the agonist.
A sample of the Triclosan™/nano-diamond powder produced according to Example 5 was dispersed into deionized water to form an 800 ppm Triclosan™ dispersion (Solution 1).
Triclosan™ was dissolved into an ethanol/water mixture (50/50 in volume) to form an 800 ppm Triclosan™ solution (Solution 2). An IC50 test was conducted with Solution 2 on gram-negative bacteria (Fusobacterium nucleatum). […]

In the case of `O=C(O)c1cn(C2CC2)c2cc(N3CCNCC3)c(F)cc2c1=O` [Solution B, ciprofloxacin], the MBC in experiment [1] worked out at 62.5 µg/mL (≈ 189 µM).

For `Oc1cc(Cl)ccc1Oc1ccc(Cl)cc1Cl` [Solution 2, 5-chloro-2-(2,4-dichloro-phenoxy)-phenol], the IC50 entry in experiment [2] is on record as “around 56 ppm”; in experiment [2] (listed as Triclosan™ in a 50:50 by volume water/ethanol solution), roughly 56 ppm.
